Laboratory results published in the supplement of paper PMC10307832.

Key:
Test in all cases: relative viability (nuclei count vs DMSO), 5 days (fraction); higher = more cells survive
[1] = compound: Clc1ccc(Nc2nnc(Cc3ccncc3)c3ccccc23)cc1 [Vatalanib]
Procedure, shortened: (§1)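 Acceptance criteria were a control CV below 25% and at least one doubling per plate. Lung cancer cell lines in 1536-well plates got five library-drug doses (not always all listed) √10 apart by pinning and were left 5 days with no medium change. Viability divides treated-well nuclei by vehicle-well nuclei and is the median across plates. Nuclei were counted by MetaXpress from 4× Hoechst images.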

[2] = compound: CC(C)S(=O)(=O)C1=CC=CC=C1NC2=NC(=NC(=C2Cl)N)NC3=C(C=C(C=C3)N4CCC(CC4)C(=O)N)OC [HG-5-88-01]
Procedure, shortened: as §1

[3] = compound: CCCCCCCCCCCC1=C(O)C(=O)C=C(O)C1=O [Embelin]
Procedure, shortened: as §1

[4] = compound: C[C@@H]1CN(CC(=O)Nc2ccc3c(c2)Cc2cccc(-c4cc(=O)cc(N5CCOCC5)o4)c2S3)C[C@H](C)O1
Procedure, shortened: as §1

[5] = compound: CC(C)Oc1cc(Nc2nc(N[C@@H](C)c3ccc(F)cn3)ncc2Cl)n[nH]1 [AZ23]
Procedure, shortened: as §1

NCI-H1299
relative viability ([1]; 0.04 µM): 1.05
relative viability ([1]; 0.1265 µM): 1.01
relative viability ([1]; 0.4 µM): 1.02
relative viability ([1]; 1.265 µM): 1
relative viability ([1]; 4 µM): 1.01
relative viability ([2]; 0.04 µM): 0.987
relative viability ([2]; 0.1265 µM): 1.02
relative viability ([2]; 0.4 µM): 0.992
relative viability ([2]; 1.265 µM): 0.99
relative viability ([2]; 4 µM): 1.02
relative viability ([3]; 0.08 µM): 1.04
relative viability ([3]; 0.8 µM): 1.05
relative viability ([3]; 2.53 µM): 0.994
relative viability ([3]; 8 µM): 1.02
relative viability ([4]; 0.04 µM): 1.05
relative viability ([4]; 0.1265 µM): 0.989
relative viability ([4]; 0.4 µM): 1
relative viability ([4]; 4 µM): 0.898
relative viability ([5]; 0.01 µM): 1.06
relative viability ([5]; 0.03162 µM): 1.01
relative viability ([5]; 0.3162 µM): 1.1

LOU-NH91
relative viability ([1]; 0.04 µM): 0.925
relative viability ([1]; 0.1265 µM): 0.936
relative viability ([1]; 0.4 µM): 0.816
relative viability ([1]; 1.265 µM): 0.876
relative viability ([1]; 4 µM): 0.921
relative viability ([2]; 0.04 µM): 0.912
relative viability ([2]; 0.1265 µM): 0.904
relative viability ([2]; 0.4 µM): 0.866
relative viability ([2]; 1.265 µM): 0.612
relative viability ([2]; 4 µM): 0.629
relative viability ([3]; 0.08 µM): 1.02
relative viability ([3]; 0.8 µM): 1.27
relative viability ([3]; 2.53 µM): 0.991
relative viability ([3]; 8 µM): 0.864
relative viability ([4]; 0.04 µM): 0.943
relative viability ([4]; 0.1265 µM): 0.989
relative viability ([4]; 0.4 µM): 0.966
relative viability ([4]; 4 µM): 0.876
relative viability ([5]; 0.01 µM): 0.921
relative viability ([5]; 0.03162 µM): 1.08
relative viability ([5]; 0.3162 µM): 1.01

A549
relative viability ([1]; 0.04 µM): 1.01
relative viability ([1]; 0.1265 µM): 0.944
relative viability ([1]; 0.4 µM): 0.998
relative viability ([1]; 1.265 µM): 0.928
relative viability ([1]; 4 µM): 0.929
relative viability ([2]; 0.04 µM): 0.997
relative viability ([2]; 0.1265 µM): 0.954
relative viability ([2]; 0.4 µM): 0.909
relative viability ([2]; 1.265 µM): 0.726
relative viability ([2]; 4 µM): 0.75
relative viability ([3]; 0.08 µM): 0.992
relative viability ([3]; 0.8 µM): 1.06
relative viability ([3]; 2.53 µM): 1.12
relative viability ([3]; 8 µM): 0.97
relative viability ([4]; 0.04 µM): 0.958
relative viability ([4]; 0.1265 µM): 0.922
relative viability ([4]; 0.4 µM): 0.918
relative viability ([4]; 4 µM): 0.806
relative viability ([5]; 0.01 µM): 1.23
relative viability ([5]; 0.03162 µM): 1.12
relative viability ([5]; 0.3162 µM): 0.922

NCI-H1755
relative viability ([1]; 0.04 µM): 1.03
relative viability ([1]; 0.1265 µM): 0.959
relative viability ([1]; 0.4 µM): 0.966
relative viability ([1]; 1.265 µM): 0.944
relative viability ([1]; 4 µM): 0.99
relative viability ([2]; 0.04 µM): 1.02
relative viability ([2]; 0.1265 µM): 1.03
relative viability ([2]; 0.4 µM): 0.99
relative viability ([2]; 1.265 µM): 1.02
relative viability ([2]; 4 µM): 1.01
relative viability ([3]; 0.08 µM): 0.986
relative viability ([3]; 0.8 µM): 1.03
relative viability ([3]; 2.53 µM): 1.02
relative viability ([3]; 8 µM): 0.892
relative viability ([4]; 0.04 µM): 1.01
relative viability ([4]; 0.1265 µM): 0.986
relative viability ([4]; 0.4 µM): 1.03
relative viability ([4]; 4 µM): 1.01
relative viability ([5]; 0.01 µM): 1.09
relative viability ([5]; 0.03162 µM): 1.05
relative viability ([5]; 0.3162 µM): 1.06

NCI-H650
relative viability ([1]; 0.04 µM): 1.01
relative viability ([1]; 0.1265 µM): 0.885
relative viability ([1]; 1.265 µM): 0.779
relative viability ([1]; 4 µM): 0.847
relative viability ([2]; 0.04 µM): 1.04
relative viability ([2]; 0.1265 µM): 0.993
relative viability ([2]; 0.4 µM): 0.829
relative viability ([2]; 1.265 µM): 0.902
relative viability ([2]; 4 µM): 0.576
relative viability ([3]; 0.08 µM): 0.821
relative viability ([3]; 0.8 µM): 1.09
relative viability ([3]; 2.53 µM): 0.909
relative viability ([3]; 8 µM): 0.739
relative viability ([4]; 0.04 µM): 0.944
relative viability ([4]; 0.1265 µM): 0.95
relative viability ([4]; 0.4 µM): 1.07
relative viability ([4]; 4 µM): 0.722
relative viability ([5]; 0.01 µM): 0.867
relative viability ([5]; 0.03162 µM): 1.09
relative viability ([5]; 0.3162 µM): 0.921

CAL-12T
relative viability ([1]; 0.04 µM): 0.978
relative viability ([1]; 0.1265 µM): 0.946
relative viability ([1]; 0.4 µM): 0.988
relative viability ([1]; 1.265 µM): 0.867
relative viability ([1]; 4 µM): 0.885
relative viability ([2]; 0.04 µM): 0.959
relative viability ([2]; 0.1265 µM): 1.09
relative viability ([2]; 0.4 µM): 0.952
relative viability ([2]; 1.265 µM): 0.746
relative viability ([2]; 4 µM): 0.459
relative viability ([3]; 0.08 µM): 1.01
relative viability ([3]; 0.8 µM): 1.18
relative viability ([3]; 2.53 µM): 0.855
relative viability ([3]; 8 µM): 0.986
relative viability ([4]; 0.04 µM): 1.04
relative viability ([4]; 0.1265 µM): 1.01
relative viability ([4]; 0.4 µM): 1.06
relative viability ([4]; 4 µM): 0.549
relative viability ([5]; 0.01 µM): 0.692
relative viability ([5]; 0.03162 µM): 1.09
relative viability ([5]; 0.3162 µM): 0.932

EBC-1
relative viability ([1]; 0.04 µM): 1.06
relative viability ([1]; 0.1265 µM): 0.895
relative viability ([1]; 0.4 µM): 1.06
relative viability ([1]; 1.265 µM): 0.955
relative viability ([1]; 4 µM): 0.896
relative viability ([2]; 0.04 µM): 1.02
relative viability ([2]; 0.1265 µM): 0.851
relative viability ([2]; 0.4 µM): 0.98
relative viability ([2]; 1.265 µM): 0.933
relative viability ([2]; 4 µM): 0.901
relative viability ([3]; 0.08 µM): 1
relative viability ([3]; 0.8 µM): 1.11
relative viability ([3]; 2.53 µM): 1.02
relative viability ([3]; 8 µM): 0.979
relative viability ([4]; 0.04 µM): 1.02
relative viability ([4]; 0.1265 µM): 0.952
relative viability ([4]; 0.4 µM): 0.712
relative viability ([4]; 4 µM): 0.535
relative viability ([5]; 0.01 µM): 1.04
relative viability ([5]; 0.03162 µM): 1.12
relative viability ([5]; 0.3162 µM): 0.931

NCI-H838
relative viability ([1]; 0.04 µM): 1.02
relative viability ([1]; 0.1265 µM): 0.928
relative viability ([1]; 0.4 µM): 1.09
relative viability ([1]; 1.265 µM): 0.945
relative viability ([1]; 4 µM): 0.942
relative viability ([2]; 0.04 µM): 0.978
relative viability ([2]; 0.1265 µM): 1.03
relative viability ([2]; 0.4 µM): 0.79
relative viability ([2]; 1.265 µM): 0.676
relative viability ([2]; 4 µM): 0.655
relative viability ([3]; 0.08 µM): 0.982
relative viability ([3]; 0.8 µM): 1.05
relative viability ([3]; 2.53 µM): 1.06
relative viability ([3]; 8 µM): 0.896
relative viability ([4]; 0.04 µM): 0.887
relative viability ([4]; 0.1265 µM): 0.93
relative viability ([4]; 0.4 µM): 0.883
relative viability ([4]; 4 µM): 0.813
relative viability ([5]; 0.01 µM): 0.987
relative viability ([5]; 0.03162 µM): 0.993
relative viability ([5]; 0.3162 µM): 1
